Measurements as given in the supplement of paper PMC8671470.

These compounds were tested on HL-60 (assay: cell viability (% survival relative to DMSO control); higher = less cytotoxic). Details: drug1 concentration 50 nM; drug2 concentration 500 nM; 72 h.
Procedure: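 8x8 drug-combination matrices (0-5000 nM; rosiglitazone and lestaurtinib 0-1000 nM) were run in HL-60 cells for 72 h with a CellTiter-Glo read-out. Survival is normalised to DMSO and 10 µM bortezomib and clipped at 100%. Bliss synergy was analysed in SynergyFinder.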

Structure (SMILES) | cell viability [%]
O=C(C1CC1)N1CC[C@@H](C=C2NNC(=O)N2c2ccc(-c3ccc4occc4c3)cc2)C1 + C[C@H](NC(=O)c1sccc1OCc1ccc(Cl)cc1)c1ccccc1 [as1949490] | 63.5
O=C(C1CC1)N1CC[C@@H](C=C2NNC(=O)N2c2ccc(-c3ccc4occc4c3)cc2)C1 + O=C(c1c2ccccc2cc2ccccc12)N1CCC(N2CCC[C@@H](C(=O)N3CCOCC3)C2)CC1 [CP-640186] | 75.1
CC(C)c1onc(-c2c(Cl)cccc2Cl)c1COc1ccc(/C=C/c2cccc(C(=O)O)c2)c(Cl)c1 [GW4064] + Cn1cc(-c2ccncc2)c(-c2ccc(OCc3ccc4ccccc4n3)cc2)n1 [PF-02545920] | > 100

Same assay, conditions: drug1 concentration 50 nM; drug2 concentration 1000 nM; 72 h

Structure (SMILES) | cell viability [%]
O=C(C1CC1)N1CC[C@@H](C=C2NNC(=O)N2c2ccc(-c3ccc4occc4c3)cc2)C1 + CS(=O)(=O)N1CCN(Cc2cc3nc(-c4cccc5[nH]ncc45)nc(N4CCOCC4)c3s2)CC1 [Pictilisib] | 41.3
O=C(C1CC1)N1CC[C@@H](C=C2NNC(=O)N2c2ccc(-c3ccc4occc4c3)cc2)C1 + C[C@H](NC(=O)c1sccc1OCc1ccc(Cl)cc1)c1ccccc1 [as1949490] | 60.1
O=C(C1CC1)N1CC[C@@H](C=C2NNC(=O)N2c2ccc(-c3ccc4occc4c3)cc2)C1 + O=C(c1c2ccccc2cc2ccccc12)N1CCC(N2CCC[C@@H](C(=O)N3CCOCC3)C2)CC1 [CP-640186] | 70.3
CC(C)c1onc(-c2c(Cl)cccc2Cl)c1COc1ccc(/C=C/c2cccc(C(=O)O)c2)c(Cl)c1 [GW4064] + Cn1cc(-c2ccncc2)c(-c2ccc(OCc3ccc4ccccc4n3)cc2)n1 [PF-02545920] | > 100

Same assay, conditions: drug1 concentration 50 nM; drug2 concentration 5000 nM; 72 h

Structure (SMILES) | cell viability [%]
O=C(C1CC1)N1CC[C@@H](C=C2NNC(=O)N2c2ccc(-c3ccc4occc4c3)cc2)C1 + CS(=O)(=O)N1CCN(Cc2cc3nc(-c4cccc5[nH]ncc45)nc(N4CCOCC4)c3s2)CC1 [Pictilisib] | 40.3
O=C(C1CC1)N1CC[C@@H](C=C2NNC(=O)N2c2ccc(-c3ccc4occc4c3)cc2)C1 + C[C@H](NC(=O)c1sccc1OCc1ccc(Cl)cc1)c1ccccc1 [as1949490] | 57.6
O=C(C1CC1)N1CC[C@@H](C=C2NNC(=O)N2c2ccc(-c3ccc4occc4c3)cc2)C1 + O=C(c1c2ccccc2cc2ccccc12)N1CCC(N2CCC[C@@H](C(=O)N3CCOCC3)C2)CC1 [CP-640186] | 72
CC(C)c1onc(-c2c(Cl)cccc2Cl)c1COc1ccc(/C=C/c2cccc(C(=O)O)c2)c(Cl)c1 [GW4064] + Cn1cc(-c2ccncc2)c(-c2ccc(OCc3ccc4ccccc4n3)cc2)n1 [PF-02545920] | > 100

Same assay, conditions: drug1 concentration 100 nM; drug2 concentration 5 nM; 72 h

Structure (SMILES) | cell viability [%]
O=C(C1CC1)N1CC[C@@H](C=C2NNC(=O)N2c2ccc(-c3ccc4occc4c3)cc2)C1 + CS(=O)(=O)N1CCN(Cc2cc3nc(-c4cccc5[nH]ncc45)nc(N4CCOCC4)c3s2)CC1 [Pictilisib] | 59.9
O=C(C1CC1)N1CC[C@@H](C=C2NNC(=O)N2c2ccc(-c3ccc4occc4c3)cc2)C1 + C[C@H](NC(=O)c1sccc1OCc1ccc(Cl)cc1)c1ccccc1 [as1949490] | 68
O=C(C1CC1)N1CC[C@@H](C=C2NNC(=O)N2c2ccc(-c3ccc4occc4c3)cc2)C1 + O=C(c1c2ccccc2cc2ccccc12)N1CCC(N2CCC[C@@H](C(=O)N3CCOCC3)C2)CC1 [CP-640186] | 88.2
CC(C)c1onc(-c2c(Cl)cccc2Cl)c1COc1ccc(/C=C/c2cccc(C(=O)O)c2)c(Cl)c1 [GW4064] + Cn1cc(-c2ccncc2)c(-c2ccc(OCc3ccc4ccccc4n3)cc2)n1 [PF-02545920] | > 100

Same assay, conditions: drug1 concentration 100 nM; drug2 concentration 10 nM; 72 h

Structure (SMILES) | cell viability [%]
O=C(C1CC1)N1CC[C@@H](C=C2NNC(=O)N2c2ccc(-c3ccc4occc4c3)cc2)C1 + CS(=O)(=O)N1CCN(Cc2cc3nc(-c4cccc5[nH]ncc45)nc(N4CCOCC4)c3s2)CC1 [Pictilisib] | 60.9
O=C(C1CC1)N1CC[C@@H](C=C2NNC(=O)N2c2ccc(-c3ccc4occc4c3)cc2)C1 + C[C@H](NC(=O)c1sccc1OCc1ccc(Cl)cc1)c1ccccc1 [as1949490] | 65
O=C(C1CC1)N1CC[C@@H](C=C2NNC(=O)N2c2ccc(-c3ccc4occc4c3)cc2)C1 + O=C(c1c2ccccc2cc2ccccc12)N1CCC(N2CCC[C@@H](C(=O)N3CCOCC3)C2)CC1 [CP-640186] | 86.2
CC(C)c1onc(-c2c(Cl)cccc2Cl)c1COc1ccc(/C=C/c2cccc(C(=O)O)c2)c(Cl)c1 [GW4064] + Cn1cc(-c2ccncc2)c(-c2ccc(OCc3ccc4ccccc4n3)cc2)n1 [PF-02545920] | > 100

Same assay, conditions: drug1 concentration 100 nM; drug2 concentration 50 nM; 72 h

Structure (SMILES) | cell viability [%]
O=C(C1CC1)N1CC[C@@H](C=C2NNC(=O)N2c2ccc(-c3ccc4occc4c3)cc2)C1 + CS(=O)(=O)N1CCN(Cc2cc3nc(-c4cccc5[nH]ncc45)nc(N4CCOCC4)c3s2)CC1 [Pictilisib] | 53.3
O=C(C1CC1)N1CC[C@@H](C=C2NNC(=O)N2c2ccc(-c3ccc4occc4c3)cc2)C1 + C[C@H](NC(=O)c1sccc1OCc1ccc(Cl)cc1)c1ccccc1 [as1949490] | 57.3
O=C(C1CC1)N1CC[C@@H](C=C2NNC(=O)N2c2ccc(-c3ccc4occc4c3)cc2)C1 + O=C(c1c2ccccc2cc2ccccc12)N1CCC(N2CCC[C@@H](C(=O)N3CCOCC3)C2)CC1 [CP-640186] | 88
CC(C)c1onc(-c2c(Cl)cccc2Cl)c1COc1ccc(/C=C/c2cccc(C(=O)O)c2)c(Cl)c1 [GW4064] + Cn1cc(-c2ccncc2)c(-c2ccc(OCc3ccc4ccccc4n3)cc2)n1 [PF-02545920] | > 100

Same assay, conditions: drug1 concentration 100 nM; drug2 concentration 100 nM; 72 h

Structure (SMILES) | cell viability [%]
O=C(C1CC1)N1CC[C@@H](C=C2NNC(=O)N2c2ccc(-c3ccc4occc4c3)cc2)C1 + CS(=O)(=O)N1CCN(Cc2cc3nc(-c4cccc5[nH]ncc45)nc(N4CCOCC4)c3s2)CC1 [Pictilisib] | 51.5
O=C(C1CC1)N1CC[C@@H](C=C2NNC(=O)N2c2ccc(-c3ccc4occc4c3)cc2)C1 + C[C@H](NC(=O)c1sccc1OCc1ccc(Cl)cc1)c1ccccc1 [as1949490] | 53.2
O=C(C1CC1)N1CC[C@@H](C=C2NNC(=O)N2c2ccc(-c3ccc4occc4c3)cc2)C1 + O=C(c1c2ccccc2cc2ccccc12)N1CCC(N2CCC[C@@H](C(=O)N3CCOCC3)C2)CC1 [CP-640186] | 90.5
CC(C)c1onc(-c2c(Cl)cccc2Cl)c1COc1ccc(/C=C/c2cccc(C(=O)O)c2)c(Cl)c1 [GW4064] + Cn1cc(-c2ccncc2)c(-c2ccc(OCc3ccc4ccccc4n3)cc2)n1 [PF-02545920] | 76.3

Same assay, conditions: drug1 concentration 100 nM; drug2 concentration 500 nM; 72 h

Structure (SMILES) | cell viability [%]
O=C(C1CC1)N1CC[C@@H](C=C2NNC(=O)N2c2ccc(-c3ccc4occc4c3)cc2)C1 + CS(=O)(=O)N1CCN(Cc2cc3nc(-c4cccc5[nH]ncc45)nc(N4CCOCC4)c3s2)CC1 [Pictilisib] | 45.7
O=C(C1CC1)N1CC[C@@H](C=C2NNC(=O)N2c2ccc(-c3ccc4occc4c3)cc2)C1 + C[C@H](NC(=O)c1sccc1OCc1ccc(Cl)cc1)c1ccccc1 [as1949490] | 56
O=C(C1CC1)N1CC[C@@H](C=C2NNC(=O)N2c2ccc(-c3ccc4occc4c3)cc2)C1 + O=C(c1c2ccccc2cc2ccccc12)N1CCC(N2CCC[C@@H](C(=O)N3CCOCC3)C2)CC1 [CP-640186] | 91.1
CC(C)c1onc(-c2c(Cl)cccc2Cl)c1COc1ccc(/C=C/c2cccc(C(=O)O)c2)c(Cl)c1 [GW4064] + Cn1cc(-c2ccncc2)c(-c2ccc(OCc3ccc4ccccc4n3)cc2)n1 [PF-02545920] | > 100

Same assay, conditions: drug1 concentration 100 nM; drug2 concentration 1000 nM; 72 h

Structure (SMILES) | cell viability [%]
O=C(C1CC1)N1CC[C@@H](C=C2NNC(=O)N2c2ccc(-c3ccc4occc4c3)cc2)C1 + CS(=O)(=O)N1CCN(Cc2cc3nc(-c4cccc5[nH]ncc45)nc(N4CCOCC4)c3s2)CC1 [Pictilisib] | 44.2
O=C(C1CC1)N1CC[C@@H](C=C2NNC(=O)N2c2ccc(-c3ccc4occc4c3)cc2)C1 + C[C@H](NC(=O)c1sccc1OCc1ccc(Cl)cc1)c1ccccc1 [as1949490] | 46.8
O=C(C1CC1)N1CC[C@@H](C=C2NNC(=O)N2c2ccc(-c3ccc4occc4c3)cc2)C1 + O=C(c1c2ccccc2cc2ccccc12)N1CCC(N2CCC[C@@H](C(=O)N3CCOCC3)C2)CC1 [CP-640186] | 75.1
CC(C)c1onc(-c2c(Cl)cccc2Cl)c1COc1ccc(/C=C/c2cccc(C(=O)O)c2)c(Cl)c1 [GW4064] + Cn1cc(-c2ccncc2)c(-c2ccc(OCc3ccc4ccccc4n3)cc2)n1 [PF-02545920] | > 100

Same assay, conditions: drug1 concentration 100 nM; drug2 concentration 5000 nM; 72 h

Structure (SMILES) | cell viability [%]
O=C(C1CC1)N1CC[C@@H](C=C2NNC(=O)N2c2ccc(-c3ccc4occc4c3)cc2)C1 + CS(=O)(=O)N1CCN(Cc2cc3nc(-c4cccc5[nH]ncc45)nc(N4CCOCC4)c3s2)CC1 [Pictilisib] | 33.2
O=C(C1CC1)N1CC[C@@H](C=C2NNC(=O)N2c2ccc(-c3ccc4occc4c3)cc2)C1 + C[C@H](NC(=O)c1sccc1OCc1ccc(Cl)cc1)c1ccccc1 [as1949490] | 43.4
